Laboratory results published in patent publication US10730872B2, “Pesticidally active heterocyclic derivatives with sulphur containing sustitutents” (SYNGENTA PARTICIPATIONS AG, priority 2015, dated 2020).

Tests used:
Type in all cases: in vivo
Euschistus heros = Euschistus heros (Neotropical Brown Stink Bug); settings: 120 h, application rate of 200 ppm, sprayed soybean leaves, N2 nymphs, 5 days after infestation, read-out: effect in at least one of the two categories (mortality or growth inhibition)
Procedure: Soybean leaves on agar in 24-well microtiter plates were sprayed with aqueous test solutions prepared from 10,000 ppm DMSO stock solutions. After drying the leaves were infested with N2 nymphs. The samples were assessed for mortality and growth inhibition in comparison to untreated samples 5 days after infestation.

Myzus persicae [1] = assay: Myzus persicae (Green Peach Aphid). Systemic Activity; settings: 144 h, test rate of 24 ppm, roots of infested pea seedlings in test solution, 6 days
Procedure: Roots of pea seedlings infested with an aphid population of mixed ages were placed directly into aqueous test solutions prepared from 10,000 DMSO stock solutions. The samples were assessed for mortality 6 days after placing seedlings into test solutions.

Plutella xylostella = Plutella xylostella (Diamond Back Moth); settings: 120 h, application rate of 200 ppm, artificial diet, L2 larvae, 5 days after infestation, read-out: effect in at least one of the two categories (mortality or growth inhibition)
Procedure: (§1) 24-well microtiter plates with artificial diet were treated with aqueous test solutions prepared from 10,000 ppm DMSO stock solutions by pipetting. After drying, the plates were infested with L2 larvae (10 to 15 per well). The samples were assessed for mortality and growth inhibition in comparison to untreated samples 5 days after infestation.

Bemisia tabaci = Bemisia tabaci (Cotton White Fly): Feeding/Contact Activity; settings: foliar, 144 h, application rate of 200 ppm, sprayed cotton leaf discs, adult white flies, 6 days after incubation
Procedure: Cotton leaf discs were placed on agar in 24-well microtiter plates and sprayed with aqueous test solutions prepared from 10,000 ppm DMSO stock solutions. After drying the leaf discs were infested with adult white flies. The samples were checked for mortality 6 days after incubation.

Myzus persicae [2] = assay: Myzus persicae (Green Peach Aphid): Feeding/Contact Activity; settings: foliar, 144 h, application rate of 200 ppm, sprayed sunflower leaf discs, aphid population of mixed ages, 6 days after infestation
Procedure: Sunflower leaf discs were placed onto agar in a 24-well microtiter plate and sprayed with aqueous test solutions prepared from 10,000 ppm DMSO stock solutions. After drying, the leaf discs were infested with an aphid population of mixed ages. The samples were assessed for mortality 6 days after infestation.

Spodoptera littoralis = Spodoptera littoralis (Egyptian Cotton Leaf Worm), sprayed cotton leaf discs; settings: foliar, 72 h, application rate of 200 ppm, L1 larvae, 3 days after infestation
Procedure: Cotton leaf discs were placed onto agar in 24-well microtiter plates and sprayed with aqueous test solutions prepared from 10,000 ppm DMSO stock solutions. After drying the leaf discs were infested with five L1 larvae. The samples were assessed for mortality, anti-feeding effect, and growth inhibition in comparison to untreated samples 3 days after infestation. Control of Spodoptera littoralis by a test sample is given when at least one of the categories mortality, anti-feedant effect, and growth inhibition is higher than the untreated sample.

Diabrotica balteata = Diabrotica balteata (Corn Root Worm); settings: 96 h, application rate of 200 ppm, sprayed maize sprouts, L2 larvae, 4 days after infestation, read-out: effect in at least one of the two categories (mortality or growth inhibition)
Procedure: as §1, with “Maize sprouts placed onto an agar layer in 24-well” for “24-well”, “plates” for “plates with artificial diet”, “spraying.” for “pipetting.”, “(6” for “(10”, “10” for “15”, “4” for “5”

CCn1c(C(F)(F)F)cc2nc(-c3ncc(C(=O)N(C)C4CC4)cc3S(=O)(=O)CC)n(C)c2c1=O [Compound A17, N-cyclopropyl-6-[5-ethyl-3-methyl-4-oxo-6-(trifluoromethyl)imidazo[4,5-c]pyridin-2-yl]-5-ethylsulfonyl-N-methyl-pyridine-3-carboxamide]
≥ 80%: percent effect (mortality or growth inhibition) at 200 ppm (Euschistus heros) | mortality at 24 ppm (Myzus persicae [1]) | percent effect (mortality or growth inhibition) at 200 ppm (Plutella xylostella)

CCn1c(C(F)(F)F)cc2nc(-c3nc(C(=O)N(C)C4CC4)ccc3S(=O)(=O)CC)n(C)c2c1=O [Compound A18, N-cyclopropyl-6-[5-ethyl-3-methyl-4-oxo-6-(trifluoromethyl)imidazo[4,5-c]pyridin-2-yl]-5-ethylsulfonyl-N-methyl-pyridine-2-carboxamide]
≥ 80%: mortality at 200 ppm (Bemisia tabaci) | mortality at 200 ppm (Myzus persicae [2]) | mortality at 24 ppm (Myzus persicae [1]) | percent effect (mortality or growth inhibition) at 200 ppm (Plutella xylostella) | percent control (mortality, anti-feeding effect or growth inhibition) at 200 ppm (Spodoptera littoralis)

CCn1c(C(F)(F)F)cc2nc(-c3ncc(N(C)N(C)C(=O)C4CC4)cc3S(=O)(=O)CC)n(C)c2c1=O [Compound A22, N′-[6-[5-ethyl-3-methyl-4-oxo-6-(trifluoromethyl)imidazo[4,5-c]pyridin-2-yl]-5-ethylsulfonyl-3-pyridyl]-N,N′-dimethyl-cyclopropanecarbohydrazide]
≥ 80%: percent effect (mortality or growth inhibition) at 200 ppm (Euschistus heros) | mortality at 24 ppm (Myzus persicae [1]) | percent effect (mortality or growth inhibition) at 200 ppm (Plutella xylostella) | percent control (mortality, anti-feeding effect or growth inhibition) at 200 ppm (Spodoptera littoralis)

CCn1c(C(F)(F)F)cc2nc(-c3ncc(C(=O)NC4(C#N)CC4)cc3S(=O)(=O)CC)n(C)c2c1=O [Compound A25, N-(1-cyanocyclopropyl)-6-[5-ethyl-3-methyl-4-oxo-6-(trifluoromethyl)imidazo[4,5-c]pyridin-2-yl]-5-ethylsulfonyl-pyridine-3-carboxamide]
≥ 80%: percent effect (mortality or growth inhibition) at 200 ppm (Euschistus heros) | percent control (mortality, anti-feeding effect or growth inhibition) at 200 ppm (Spodoptera littoralis)

CCn1c(C(F)(F)F)cc2nc(-c3ncc(N(C)/C=N/OC)cc3S(=O)(=O)CC)n(C)c2c1=O [Compound A27, N-[6-[5-ethyl-3-methyl-4-oxo-6-(trifluoromethyl)imidazo[4,5-c]pyridin-2-yl]-5-ethylsulfonyl-3-pyridyl]-N′-methoxy-N-methyl-formamidine]
≥ 80%: percent effect (mortality or growth inhibition) at 200 ppm (Plutella xylostella) | percent control (mortality, anti-feeding effect or growth inhibition) at 200 ppm (Spodoptera littoralis)

CCn1c(C(F)(F)F)cc2nc(-c3ncc(C(=O)NCC#N)cc3S(=O)(=O)CC)n(C)c2c1=O [Compound A28, N-(cyanomethyl)-6-[5-ethyl-3-methyl-4-oxo-6-(trifluoromethyl)imidazo[4,5-c]pyridin-2-yl]-5-ethylsulfonyl-pyridine-3-carboxamide]
≥ 80%: percent effect (mortality or growth inhibition) at 200 ppm (Euschistus heros) | mortality at 200 ppm (Myzus persicae [2]) | mortality at 24 ppm (Myzus persicae [1]) | percent effect (mortality or growth inhibition) at 200 ppm (Plutella xylostella)

CCn1c(C(F)(F)F)cc2nc(-c3nc(N(C)CC(F)(F)F)ccc3S(=O)(=O)CC)n(C)c2c1=O [Compound A33]
≥ 80%: effect mortality or growth inhibition at 200 ppm (Diabrotica balteata) | percent effect (mortality or growth inhibition) at 200 ppm (Plutella xylostella) | percent control (mortality, anti-feeding effect or growth inhibition) at 200 ppm (Spodoptera littoralis)

CCn1c(C(F)(F)F)cc2nc(-c3ncc(NS(=O)(=O)C4CC4)cc3S(=O)(=O)CC)n(C)c2c1=O [Compound A36, N-[6-[5-ethyl-3-methyl-4-oxo-6-(trifluoromethyl)imidazo[4,5-c]pyridin-2-yl]-5-ethylsulfonyl-3-pyridyl]cyclopropanesulfonamide]
≥ 80%: mortality at 200 ppm (Myzus persicae [2])

CCn1c(C(F)(F)F)cc2nc(-c3ncc(N(C)S(=O)(=O)C4CC4)cc3S(=O)(=O)CC)n(C)c2c1=O [Compound A37, N-[6-[5-ethyl-3-methyl-4-oxo-6-(trifluoromethyl)imidazo[4,5-c]pyridin-2-yl]-5-ethylsulfonyl-3-pyridyl]-N-methyl-cyclopropanesulfonamide]
≥ 80%: mortality at 200 ppm (Bemisia tabaci) | effect mortality or growth inhibition at 200 ppm (Diabrotica balteata) | percent effect (mortality or growth inhibition) at 200 ppm (Euschistus heros) | percent effect (mortality or growth inhibition) at 200 ppm (Plutella xylostella) | percent control (mortality, anti-feeding effect or growth inhibition) at 200 ppm (Spodoptera littoralis)

CCS(=O)(=O)c1ccc(NOC)nc1-c1nc2cc(C(F)(F)F)n(C3CC3)c(=O)c2n1C [Compound A46, 5-cyclopropyl-2-[3-ethylsulfonyl-6-(methoxyamino)-2-pyridyl]-3-methyl-6-(trifluoromethyl)imidazo[4,5-c]pyridin-4-one]
≥ 80%: effect mortality or growth inhibition at 200 ppm (Diabrotica balteata) | percent effect (mortality or growth inhibition) at 200 ppm (Euschistus heros) | percent effect (mortality or growth inhibition) at 200 ppm (Plutella xylostella) | percent control (mortality, anti-feeding effect or growth inhibition) at 200 ppm (Spodoptera littoralis)

CCS(=O)(=O)c1cc(C)c(N)nc1-c1nc2cc(C(F)(F)F)n(C3CC3)c(=O)c2n1C [Compound A49, 2-(6-amino-5-methyl-3-ethylsulfonyl-2-pyridyl)-5-cyclopropyl-3-methyl-6-(trifluoromethyl)imidazo[4,5-c]pyridin-4-one]
≥ 80%: mortality at 200 ppm (Bemisia tabaci) | effect mortality or growth inhibition at 200 ppm (Diabrotica balteata) | mortality at 200 ppm (Myzus persicae [2]) | mortality at 24 ppm (Myzus persicae [1]) | percent effect (mortality or growth inhibition) at 200 ppm (Plutella xylostella) | percent control (mortality, anti-feeding effect or growth inhibition) at 200 ppm (Spodoptera littoralis)

CCn1c(C(F)(F)F)cc2nc(-c3nc(Br)c(N)cc3S(=O)(=O)CC)n(C)c2c1=O [Compound A54, 2-(5-amino-6-bromo-3-ethylsulfonyl-2-pyridyl)-5-ethyl-3-methyl-6-(trifluoromethyl)imidazo[4,5-c]pyridin-4-one]
≥ 80%: effect mortality or growth inhibition at 200 ppm (Diabrotica balteata) | percent effect (mortality or growth inhibition) at 200 ppm (Plutella xylostella) | percent control (mortality, anti-feeding effect or growth inhibition) at 200 ppm (Spodoptera littoralis)

CCn1c(C(F)(F)F)cc2nc(-c3ncc(NC(=O)C4(C#N)CC4)cc3S(=O)(=O)CC)n(C)c2c1=O [Compound A55, 1-cyano-N-[6-[5-ethyl-3-methyl-4-oxo-6-(trifluoromethyl)imidazo[4,5-c]pyridin-2-yl]-5-ethylsulfonyl-3-pyridyl]cyclopropanecarboxamide]
≥ 80%: mortality at 200 ppm (Myzus persicae [2]) | mortality at 24 ppm (Myzus persicae [1]) | percent effect (mortality or growth inhibition) at 200 ppm (Plutella xylostella) | percent control (mortality, anti-feeding effect or growth inhibition) at 200 ppm (Spodoptera littoralis)

CCn1c(C(F)(F)F)cc2nc(-c3ncc(NC4(C#N)CC4)cc3[S+]([O-])CC)n(C)c2c1=O (centres unmarked) [Compound A57, 1-[[6-[5-ethyl-3-methyl-4-oxo-6-(trifluoromethyl)imidazo[4,5-c]pyridin-2-yl]-5-ethylsulfinyl-3-pyridyl]amino]cyclopropanecarbonitrile]
≥ 80%: effect mortality or growth inhibition at 200 ppm (Diabrotica balteata) | percent effect (mortality or growth inhibition) at 200 ppm (Plutella xylostella) | percent control (mortality, anti-feeding effect or growth inhibition) at 200 ppm (Spodoptera littoralis)

CCn1c(C(F)(F)F)cc2nc(-c3ncc(NC4CC4)cc3[S+]([O-])CC)n(C)c2c1=O (centres unmarked) [Compound A58, 2-[5-(cyclopropylamino)-3-ethylsulfinyl-2-pyridyl]-5-ethyl-3-methyl-6-(trifluoromethyl)imidazo[4,5-c]pyridin-4-one]
≥ 80%: effect mortality or growth inhibition at 200 ppm (Diabrotica balteata)

CCS(=O)(=O)c1ccc(NC(=O)OC(C)(C)C)nc1-c1nc2cc(C(F)(F)F)n(C3CC3)c(=O)c2n1C [Compound A63, Tert-butyl N-[6-[5-cyclopropyl-3-methyl-4-oxo-6-(trifluoromethyl)imidazo[4,5-c]pyridin-2-yl]-5-ethylsulfonyl-2-pyridyl]carbamate]
≥ 80%: mortality at 200 ppm (Bemisia tabaci) | effect mortality or growth inhibition at 200 ppm (Diabrotica balteata) | percent effect (mortality or growth inhibition) at 200 ppm (Plutella xylostella) | percent control (mortality, anti-feeding effect or growth inhibition) at 200 ppm (Spodoptera littoralis)

CCn1c(C(F)(F)F)cc2nc(-c3nc(C(C)=O)ccc3S(=O)(=O)CC)n(C)c2c1=O [Compound A70, 2-(6-acetyl-3-ethylsulfonyl-2-pyridyl)-5-ethyl-3-methyl-6-(trifluoromethyl)imidazo[4,5-c]pyridin-4-one]
≥ 80%: percent effect (mortality or growth inhibition) at 200 ppm (Plutella xylostella)

CCn1c(C(F)(F)F)cc2nc(-c3nc(N)c(C#N)cc3S(=O)(=O)CC)n(C)c2c1=O [Compound A72]
≥ 80%: percent effect (mortality or growth inhibition) at 200 ppm (Euschistus heros) | mortality at 24 ppm (Myzus persicae [1]) | percent effect (mortality or growth inhibition) at 200 ppm (Plutella xylostella) | percent control (mortality, anti-feeding effect or growth inhibition) at 200 ppm (Spodoptera littoralis)
